The text below walks through data of BindingDB's records for doi:10.1016/j.bmcl.2009.04.040 (The University of Texas Southwestern Medical Center At …, 2009).

The structures appear in SMILES notation.

The target in the test is Proto-oncogene Wnt-3 (Homo sapiens, UniProt P56703). As to the kind of experiment: Inhibition of Wnt3 expressed in mouse L-cells assessed as inhibition of Wnt/catanin signaling pathway by luciferase reporter gene assay.
Chain of Proto-oncogene Wnt-3 (P56703 whole entry): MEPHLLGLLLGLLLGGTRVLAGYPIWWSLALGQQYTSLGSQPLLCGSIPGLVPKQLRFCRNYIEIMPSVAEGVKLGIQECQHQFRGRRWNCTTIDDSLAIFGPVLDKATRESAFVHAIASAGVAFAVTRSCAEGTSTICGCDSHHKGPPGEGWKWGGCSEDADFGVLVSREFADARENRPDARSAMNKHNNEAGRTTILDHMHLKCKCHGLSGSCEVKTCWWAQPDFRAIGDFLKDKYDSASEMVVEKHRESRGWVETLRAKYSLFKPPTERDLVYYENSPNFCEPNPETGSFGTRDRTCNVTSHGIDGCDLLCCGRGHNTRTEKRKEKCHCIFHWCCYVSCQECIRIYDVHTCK
With `O=C(Nc1cccc2cccnc12)c1ccc(-n2c(O)c3c(c2O)[C@H]2C=C[C@@H]3C2)c(Cl)c1` [3-Chloro-4-((1R,2S,6R,7S)-3,5-dioxo-4-aza-tricyclo[5.2.1.0*2,6*]dec-8-en-4-yl)-N-quinolin-8-yl-benzamide], the EC50 – broadly, the concentration that produces a half-maximal response – was greater than 25 µM.

As for `Cc1cc(C(=O)Nc2cccc3cccnc23)ccc1-n1c(O)c2c(c1O)[C@H]1C=C[C@@H]2C1` [4-((1R,2S,6R,7S)-3,5-Dioxo-4-aza-tricyclo[5.2.1.0*2,6*]dec-8-en-4-yl)-3-methyl-N-quinolin-8-yl-benzamide], the EC50 is greater than 25 µM.

For the compound `O=C(NCc1cccnc1)c1ccc(-n2c(O)c3c(c2O)[C@H]2C=C[C@@H]3C2)cc1` [4-((1R,2S,6R,7S)-3,5-Dioxo-4-aza-tricyclo[5.2.1.0*2,6*]dec-8-en-4-yl)-N-pyridin-3-ylmethyl-benzamide], the EC50 is greater than 25 µM.

For `O=C(Nc1ccc(F)cc1F)c1ccc(-n2c(O)c3c(c2O)[C@H]2C=C[C@@H]3C2)cc1` [N-(2,4-Difluoro-phenyl)-4-((1R,2S,6R,7S)-dioxo-4-aza-tricyclo[5.2.1.0*2,6*]dec-8-en-4-yl)-benzamide], the EC50 was determined as 9 µM.

Turning to `O=C(Nc1ccc(F)c(F)c1)c1ccc(-n2c(O)c3c(c2O)[C@H]2C=C[C@@H]3C2)cc1` [N-(3,4-Difluoro-phenyl)-4-((1R,2S,6R,7S)-dioxo-4-aza-tricyclo[5.2.1.0*2,6*]dec-8-en-4-yl)-benzamide], the EC50 came to 3 µM.

`O=C(Nc1cccc2cccnc12)N1CCC(N2C(=O)[C@@H]3[C@H](C2=O)[C@@H]2C=C[C@H]3C2)CC1` [4-((1R,2S,6R,7S)-3,5-Dioxo-4-aza-tricyclo[5.2.1.0*2,6*]dec-8-en-4-yl)-piperidine-1-carboxylic acid quinolin-8-ylamide]: the EC50 was determined as 10 µM.

In the case of `O=C(Nc1cccc(F)c1F)c1ccc(-n2c(O)c3c(c2O)[C@H]2C=C[C@@H]3C2)cc1` [N-(2,3-Difluoro-phenyl)-4-((1R,2S,6R,7S)-dioxo-4-aza-tricyclo[5.2.1.0*2,6*]dec-8-en-4-yl)-benzamide], the EC50 was greater than 25 µM.

In the case of `O=C(Nc1ccccc1Cl)c1ccc(-n2c(O)c3c(c2O)[C@H]2C=C[C@@H]3C2)cc1` [N-(2-Chloro-phenyl)-4-((1R,2S,6R,7S)-3,5-dioxo-4-aza-tricyclo[5.2.1.0*2,6*]dec-8-en-4-yl)-benzamide], the EC50 was greater than 25 µM.

Consider `O=C(Nc1ccc(-n2c(O)c3c(c2O)[C@H]2C=C[C@@H]3C2)cc1)Nc1cccc2cccnc12` [1-[4-((1R,2S,6R,7S)-3,5-Dioxo-4-aza-tricyclo[5.2.1.0*2,6*]dec-8-en-4-yl)-phenyl]-3-quinolin-8-yl-urea], for which the EC50 is greater than 25 µM.

Regarding `COc1cc(-n2c(O)c3c(c2O)[C@H]2C=C[C@@H]3C2)ccc1C(=O)Nc1cccc2cccnc12` [4-((1R,2S,6R,7S)-3,5-Dioxo-4-aza-tricyclo[5.2.1.0*2,6*]dec-8-en-4-yl)-2-methoxy-N-quinolin-8-yl-benzamide], the EC50 is greater than 25 µM.

Turning to `O=C1[C@@H]2[C@H](C(=O)N1C[C@H]1CC[C@H](C(=O)Nc3cccc4cccnc34)CC1)[C@@H]1C=C[C@H]2C1` [4-((1R,2S,6R,7S)-3,5-Dioxo-4-aza-tricyclo[5.2.1.0*2,6*]dec-8-en-4-ylmethyl)-cyclohexanecarboxylic acid quinolin-8-ylamide], the EC50 is greater than 25 µM.

`Cc1cc(-n2c(O)c3c(c2O)[C@H]2C=C[C@@H]3C2)ccc1C(=O)Nc1cccc2cccnc12` [4-((1R,2S,6R,7S)-3,5-Dioxo-4-aza-tricyclo[5.2.1.0*2,6*]dec-8-en-4-yl)-2-methyl-N-quinolin-8-yl-benzamide]: the concentration for a half-maximal effect (EC50) is 2 µM.

Regarding `O=C(Nc1ccc(Cl)c(Cl)c1)c1ccc(-n2c(O)c3c(c2O)[C@H]2C=C[C@@H]3C2)cc1` [N-(3,4-Dichloro-phenyl)-4-((1R,2S,6R,7S)-dioxo-4-aza-tricyclo[5.2.1.0*2,6*]dec-8-en-4-yl)-benzamide], the EC50 amounted to 5 µM.

On to `O=C(Nc1ccccc1Br)c1ccc(-n2c(O)c3c(c2O)[C@H]2C=C[C@@H]3C2)cc1` [N-(2-Bromo-phenyl)-4-((1R,2S,6R,7S)-3,5-dioxo-4-aza-tricyclo[5.2.1.0*2,6*]dec-8-en-4-yl)-benzamide], for which the EC50 was greater than 25 µM.
